Assay results published in US4452778A, “Synergistic antibacterial compositions and method of treatment of infections caused by multiple antibiotic-resistant organisms” (Eli Lilly and Company, priority 1981, dated 1984).
Read-outs that look alike come from different tables or passages of the source.

Experiments:
[1] = test system: Pseudomonas aeruginosa; test: Checkerboard broth dilution synergy study (mic); format: cell-based; settings: Table II; for MIC: Pseudomonas aeruginosa, read-out: mic, drug alone
[2] = test system: Serratia marcescens; test: Checkerboard broth dilution synergy study (mic); format: cell-based; settings: Table II; for MIC: Serratia marcescens, read-out: mic, drug alone
[3] = test system: E. cloacae; test: Checkerboard broth dilution synergy study (mic); format: cell-based; settings: Table II; for MIC: Enterobacter cloacae, read-out: mic, drug alone
[4] = test system: Klebsiella pneumoniae; test: Checkerboard broth dilution synergy study (mic); format: cell-based; settings: Table II; for MIC: Klebsiella pneumoniae, read-out: mic, drug alone
[5] = test system: Proteus rettgeri; test: Checkerboard broth dilution synergy study (mic); format: cell-based; settings: Providencia rettgeri, Table II, strain 65; read-out: mic, drug alone
[6] = test system: Proteus mirabilis; test: Checkerboard broth dilution synergy study (mic); format: cell-based; settings: Proteus mirabilis; Table II, strain Allen; read-out: mic, drug alone
[7] = test system: Proteus vulgaris; test: Checkerboard broth dilution synergy study (mic); format: cell-based; settings: Proteus vulgaris, Table II, read-out: mic, drug alone
[8] = test system: E. coli; test: Checkerboard broth dilution synergy study (mic); format: cell-based; settings: Table II; for MIC: Escherichia coli, read-out: mic, drug alone
[9] = cited from earlier work; for mean serum concentration: end of injection

For `CCN1CCN(C(=O)N[C@@H](C(=O)N[C@@H]2C(=O)N3[C@@H]2SC(C)(C)[C@@H]3C(=O)O)c2ccccc2)C(=O)C1=O` [piperacillin, sodium 6-(D(-)-α-(4-ethyl-2,3-dioxo-1-piperazinylcarbonylamino)-α-phenylacetamido]penicillinate], the MIC ([1]; strain 84) was 64 µg/mL, the MIC ([1]; strain 366) was over 128 µg/mL and the MIC ([1]; strain 424) was over 128 µg/mL. It also gave an MIC ([1]; strain 447) of over 128 µg/mL, an MIC ([1]; strain 1484) of 64 µg/mL and an MIC ([1]; strain Davis) of over 64 µg/mL. For the same compound, the “mic of each drug in combination I + P” value ([1]; strain 84) was 4 µg/mL, the “mic of each drug in combination I + P” value ([1]; strain 366) was 16 µg/mL and the “mic of each drug in combination I + P” value ([1]; strain 424) was 0.5 µg/mL. The “mic of each drug in combination I + P” value ([1]; strain 447) was 0.5 µg/mL, the “mic of each drug in combination I + P” value ([1]; strain 1484) was 8 µg/mL and the “mic of each drug in combination I + P” value ([1]; strain Davis) was 16 µg/mL. For the same compound, the MIC ([2]; strain 100) was over 64 µg/mL, the MIC ([2]; strain 302-2) was over 64 µg/mL and the MIC ([2]; strain 796) was over 64 µg/mL. For the same compound, the MIC ([2]; strain 14142) was over 64 µg/mL, the MIC ([2]; strain Townsend) was over 64 µg/mL and the “mic of each drug in combination I + P” value ([2]; strain 100) was 32 µg/mL. The “mic of each drug in combination I + P” value ([2]; strain 302-2) was 8 µg/mL, the “mic of each drug in combination I + P” value ([2]; strain 796) was 4 µg/mL and the “mic of each drug in combination I + P” value ([2]; strain 14142) was 8 µg/mL. For the same compound, the “mic of each drug in combination I + P” value ([2]; strain Townsend) was 64 µg/mL, the MIC ([3]; strain 1246) was over 64 µg/mL and the MIC ([3]; strain 1253) was over 64 µg/mL. The MIC ([3]; strain 1415) was over 64 µg/mL, the MIC ([3]; strain B293) was over 64 µg/mL and the “mic of each drug in combination I + P” value ([3]; strain 1253) was 32 µg/mL. The “mic of each drug in combination I + P” value ([3]; strain B293) was 16 µg/mL, the MIC ([4]; strain 130) was over 64 µg/mL and the MIC ([4]; strain 214-1) was over 64 µg/mL. For the same compound, the MIC ([4]; strain 463) was over 64 µg/mL, the MIC ([4]; strain 512) was over 64 µg/mL and the MIC ([4]; strain 933) was over 64 µg/mL. The MIC ([4]; strain 1204-2) was over 64 µg/mL, the “mic of each drug in combination I + P” value ([4]; strain 214-1) was 8 µg/mL and the “mic of each drug in combination I + P” value ([4]; strain 463) was 16 µg/mL. The “mic of each drug in combination I + P” value ([4]; strain 512) was 32 µg/mL, the “mic of each drug in combination I + P” value ([4]; strain 1204-2) was 2 µg/mL and the MIC [5] was 64 µg/mL. It also gave an MIC [6] of over 64 µg/mL, an MIC ([7]; strain 363) of over 64 µg/mL and an MIC ([7]; strain Shide) of over 64 µg/mL. The MIC ([8]; strain 46-2) was over 64 µg/mL, the MIC ([8]; strain 77-3) was over 64 µg/mL and the MIC ([8]; strain 136-3) was over 64 µg/mL. For the same compound, the MIC ([8]; strain 1260) was over 64 µg/mL, the MIC ([8]; strain 1262) was over 64 µg/mL and the MIC ([8]; strain Briley) was over 64 µg/mL. The MIC ([8]; strain Dill) was 32 µg/mL, the “mic of each drug in combination I + P” value ([8]; strain 46-2) was 2 µg/mL and the “mic of each drug in combination I + P” value ([8]; strain 1253) was 4 µg/mL. For the same compound, the “mic of each drug in combination I + P” value ([8]; strain 1262) was 64 µg/mL, the “mic of each drug in combination I + P” value ([8]; strain 1415) was 2 µg/mL and the “mic of each drug in combination I + P” value ([8]; strain Briley) was 32 µg/mL. For the same compound, the “mean peak serum concentration” value ([9]; single intramuscular dose 0.5 g) was 4.9 µg/mL, the “mean peak serum concentration” value ([9]; single intramuscular dose 1.0 g) was 13.3 µg/mL and the “mean peak serum concentration” value ([9]; single intramuscular dose 2.0 g) was 30.2 µg/mL. The mean serum concentration ([9]; single intravenous bolus 1.0 g) was 70.7 µg/mL, the mean serum concentration ([9]; single intravenous bolus 2.0 g) was 199.5 µg/mL and the mean serum concentration ([9]; single intravenous bolus 4.0 g) was 330.7 µg/mL. For the same compound, the mean serum concentration ([9]; single intravenous bolus 6.0 g) was 451.8 µg/mL.
